Reference: patent US7253177B2, “Synthesis and antimalarial activity of pyrrolo[3,2-f]quinazoline-1,3-diamine derivatives” (United States of America as Represented by the Secretary of …, priority 2004, dated 2007)

How the values were obtained:
[1] = Death rates after single intragastric treatment in rats; type: in vivo
[2] = system: Plasmodium yoelii (17x) sporozoites; assay: Sporozoite induced test in mice; type: in vivo; settings: P. yoelii; for Number of Mice Cured: oral
Method: B. Antimalarial Activities: (a). In Vitro Antimalarial Studies. The in vitro assays were conducted by using a modification of the semiautomated microdilution technique of Desjardins et al and Chulay et al.. Four P. falciparum malaria parasite clones, from CDC Indochina III (W-2), CDC Sierra Leone I (D-6), Southeast Asia Isolates (TM91C235) and RCS (Isolates from Brazil) were utilized in susceptibility testing. They were derived by direct visualization and micromanipulation from patient isolates. The W-2 clone is susceptible to mefloquine but resistant to chloroquine, sulfadoxine, pyrimethamine, and quinine, whereas the D-6 clone is naturally resistant to mefloquine but susceptible to chloroquine, sulfadoxine, pyrimethamine and quinine. Test compounds were initially dissolved in DMSO and diluted 400 fold in RPMI 1640 culture medium supplemented with 25 mM Hepes, 32 mM NaHCO3 and 10% Albumax I (Gibco BRL, Grand Island, N.Y.). These solutions were subsequently serially diluted two-fold with a Biomek 1000 (Beckman, Fullerton, Calif.) over 11 different concentrations. The parasites were exposed to serial dilutions of each compound for 48 hrs and incubated at 37° C. with 5% O2, 5% CO2 and 90% N2 prior to the addition of [^3H]hypoxanthine. After a further incubation of 18 hrs, parasite DNA was harvested from each microtiter well using Packard Filtermate 196 Harvester (Meriden, Conn.) onto glass filters. Uptake of [^3H]hypoxanthine was measured with a Packard Topcount Scintillation. Concentration-response data were analyzed by a non-linear regression logistic dose response model and the IC50 values (50% inhibitory concentrations) for each compound were calculated. (Table 3). (b). In Vivo Antimalarial Studies against P. berghei in mice: The in vivo efficacy of the artelinic acid analogs were determined in a modified Thompson test. This test measures the survivability of mice and parasitemia clearance following administration of drug on days 3-5 post infection. In brief, 5×10^6 P. berghei-infected erythrocytes (KBG-173 strain) were inoculated intraperitoneally to female mice that weighed 24-30 g. By day three post-infection, parasitemia ranged from 1.0-3.7%. Each drug, dissolved in 5% sodium bicarbonate, was administered PO twice daily from day 3-5 post-infection. Total doses for each drug ranged from 1.5-384 mg/kg with 8 mice included in each dosage group. The percent suppression of parasitemia in the treated mice compared to the untreated controls was determined for each test compound; the SD-50 (fifty percent suppression dose) and SD-90 were determined from a non-linear regression logistic dose response fit at day 6 parasitemia data. Survival of mice to day 60 post-infection was considered a cure (C). Compounds were considered active (A) when the survival time of the treated mice was greater than twice the control mice, i.e., 12-14 day (Table 4-5). (c). Sporozoite Induced Test Each compound is ground with a mortar & pestle and suspended in 0.5% hydroxyethylcellulose—0.1% Tween 80 for compounds to be administered PO and those given SC are suspended in peanut oil. Each compound is prepared at 3 different dose levels as requested by WRAIR. Compounds are administered either PO or SC to mice once 4 hr before inoculation of sporozoites. Four-week-old male CD-1 mice, purchased from Charles River and weighing 16-17 g, are placed 5 per cage and allowed to acclimate for 4 days before being treated and then inoculated with sporozoites. They are fed food and water ad-lib and maintained at 76° F. with 12 hr light and 12 hr darkness. The cages and water bottles are changed biweekly. The mice are weighed on Days 0, 3 and 6 then biweekly when blood films are taken. Plasmodium yoelii (17×) is used to infect mice that will be used to infect the mosquitoes. […] Whole body weights are taken on Day 0 and Day 6 then twice a week for 31 days. A blood film is taken on Day 5 and then twice a week for 31 days. Mice loosing >20% of their body weight will be sacrificed. […]

[3] = system: P. berghei ANKA; assay: In vivo antimalarial study against P. berghei in rats; parameters: species or system Plasmodium berghei
[4] = Host toxicity in animal models (general statements); type: in vivo; settings: any dose, all species of animal models studied

## CCOC(=O)Nc1nc(NC(=O)OCC)c2c(ccc3c2ccn3Cc2ccccc2C(F)(F)F)n1 [Compound 2b]
[1]; rats n=4, single intragastric 50 mg/kg in 1% CMC suspension
  Deaths: 0/4
[1]; rats n=4, single intragastric 100 mg/kg in 1% CMC suspension
  Deaths: 0/4
[1]; rats n=4, single intragastric 200 mg/kg in 1% CMC suspension
  Deaths: 0/4
[1]; rats n=4, single intragastric 400 mg/kg in 1% CMC suspension
  Deaths: 0/4
[1]; rats n=4, single intragastric 800 mg/kg in 1% CMC suspension
  Deaths: 1/4
[1]; rats, 800 mg/kg, first cell after Deaths (day uncertain)
  Day of Death: number of deaths: 1

## CC(=O)N(C(C)=O)c1nc(N(C(C)=O)C(C)=O)c2c(ccc3c2ccn3Cc2ccccc2C(F)(F)F)n1 [Compound 3e, 1,3-Bis(diacetylamino)-7-(2-trifluoromethyl)benzyl-7H-pyrrolo[3,2-f]quinazoline]
[2]; dose groups from 0.625 to 40 mg/kg
  mice cured: 100%
[2]; doses from 0.65 to 40 mg/kg given orally for 3 consecutive days
  parasitemia formation in sporozoite challenged mouse: completely prevented parasitemia formation
[2]; 0.15625 mg/kg
  Number of Mice Cured: 4/5
[2]; 0.3125 mg/kg
  Number of Mice Cured: 4/5
[2]; 0.625 mg/kg
  Number of Mice Cured: 5/5
[2]; 2.5 mg/kg
  Number of Mice Cured: 5/5
[2]; 10 mg/kg
  Number of Mice Cured: 5/5
[2]; 40 mg/kg
  Number of Mice Cured: 5/5
[3]; 5 mg/kg intragastric daily x3 (days 6, 7, 8 post-inoculation)
  cure against P. berghei in rats: 100%
[3]; 10 mg/kg intragastric daily x3
  cure against P. berghei in rats: 100%
[3]; 20 mg/kg intragastric daily x3
  cure against P. berghei in rats: 100%
[1]; rats
  therapeutic index: > 160
[1]; up to 800 mg by a single oral dose
  drug-related deaths in rats: no drug-related deaths
[4]
  host toxicity in efficacy studies: No host toxicity
